SMILES strings stand for the structures. Where only a bound is given, the exact number is not on record here.

What all share (details): PC-3
For test [1], the target named is Serine/threonine-protein kinase WNK1 (Homo sapiens) (UniProt Q9H4A3). Nature of the test: Inhibition of Wnk1 in human PC3 cell lysates at 10 uM using desthiobiotin-tagged ATP probe AX9989 followed by trypsinization by LC/MS analysis.
Test [2] deals with Ribosomal protein S6 kinase beta-1 (Homo sapiens) (UniProt P23443). Nature of the test: Inhibition of p70S6K in human PC3 cell lysates at 10 uM using desthiobiotin-tagged ATP probe AX9989 followed by trypsinization by LC/MS analysis.
For test [3], the target named is T1, Ephrin type-B receptor 4 (Homo sapiens) (UniProt P54760).
T1 sequence (whole entry): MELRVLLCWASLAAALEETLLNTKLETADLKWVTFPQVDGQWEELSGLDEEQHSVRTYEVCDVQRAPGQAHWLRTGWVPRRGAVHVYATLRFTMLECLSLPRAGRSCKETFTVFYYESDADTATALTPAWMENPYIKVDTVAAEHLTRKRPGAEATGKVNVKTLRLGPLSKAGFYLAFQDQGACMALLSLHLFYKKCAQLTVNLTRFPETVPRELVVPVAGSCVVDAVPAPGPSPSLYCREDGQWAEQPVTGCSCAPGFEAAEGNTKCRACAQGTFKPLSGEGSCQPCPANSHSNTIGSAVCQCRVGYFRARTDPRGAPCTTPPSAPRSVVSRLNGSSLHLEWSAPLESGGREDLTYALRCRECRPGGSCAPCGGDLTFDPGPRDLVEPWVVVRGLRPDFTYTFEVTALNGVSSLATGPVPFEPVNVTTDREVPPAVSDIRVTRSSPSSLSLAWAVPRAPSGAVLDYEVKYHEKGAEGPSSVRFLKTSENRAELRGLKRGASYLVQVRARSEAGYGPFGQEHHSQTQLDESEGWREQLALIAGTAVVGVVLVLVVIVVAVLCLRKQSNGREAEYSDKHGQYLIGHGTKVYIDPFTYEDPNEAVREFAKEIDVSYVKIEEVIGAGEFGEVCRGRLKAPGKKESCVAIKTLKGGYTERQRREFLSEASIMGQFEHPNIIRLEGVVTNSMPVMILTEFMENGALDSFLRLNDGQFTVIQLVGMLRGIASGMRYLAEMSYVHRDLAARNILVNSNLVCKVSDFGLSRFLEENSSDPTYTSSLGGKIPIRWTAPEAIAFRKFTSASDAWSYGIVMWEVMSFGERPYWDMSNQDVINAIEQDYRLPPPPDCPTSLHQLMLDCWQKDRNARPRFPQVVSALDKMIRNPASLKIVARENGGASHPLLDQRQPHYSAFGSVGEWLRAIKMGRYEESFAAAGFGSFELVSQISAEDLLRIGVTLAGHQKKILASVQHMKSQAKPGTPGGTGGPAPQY
Put plainly: Inhibition of EphB4 in human PC3 cell lysates at 10 uM using desthiobiotin-tagged ATP probe AX9989 followed by trypsinization by LC/MS analysis.

Test [4] concerns the target Tyrosine-protein kinase Fer (Homo sapiens) (UniProt P16591). Put plainly: Inhibition of FER in human PC3 cell lysates at 10 uM using desthiobiotin-tagged ATP probe AX9989 followed by trypsinization by LC/MS analysis.
Test [5] deals with Phosphatidylinositol 4,5-bisphosphate 3-kinase catalytic subunit beta isoform (Homo sapiens) (UniProt P42338). Nature of the test: Inhibition of PIK3CB in human PC3 cell lysates at 10 uM using desthiobiotin-tagged ATP probe AX9989 followed by trypsinization by LC/MS analysis.
Test [6] deals with T2, Serine/threonine-protein kinase D2 (Homo sapiens) (UniProt Q9BZL6).
T2 sequence (whole entry): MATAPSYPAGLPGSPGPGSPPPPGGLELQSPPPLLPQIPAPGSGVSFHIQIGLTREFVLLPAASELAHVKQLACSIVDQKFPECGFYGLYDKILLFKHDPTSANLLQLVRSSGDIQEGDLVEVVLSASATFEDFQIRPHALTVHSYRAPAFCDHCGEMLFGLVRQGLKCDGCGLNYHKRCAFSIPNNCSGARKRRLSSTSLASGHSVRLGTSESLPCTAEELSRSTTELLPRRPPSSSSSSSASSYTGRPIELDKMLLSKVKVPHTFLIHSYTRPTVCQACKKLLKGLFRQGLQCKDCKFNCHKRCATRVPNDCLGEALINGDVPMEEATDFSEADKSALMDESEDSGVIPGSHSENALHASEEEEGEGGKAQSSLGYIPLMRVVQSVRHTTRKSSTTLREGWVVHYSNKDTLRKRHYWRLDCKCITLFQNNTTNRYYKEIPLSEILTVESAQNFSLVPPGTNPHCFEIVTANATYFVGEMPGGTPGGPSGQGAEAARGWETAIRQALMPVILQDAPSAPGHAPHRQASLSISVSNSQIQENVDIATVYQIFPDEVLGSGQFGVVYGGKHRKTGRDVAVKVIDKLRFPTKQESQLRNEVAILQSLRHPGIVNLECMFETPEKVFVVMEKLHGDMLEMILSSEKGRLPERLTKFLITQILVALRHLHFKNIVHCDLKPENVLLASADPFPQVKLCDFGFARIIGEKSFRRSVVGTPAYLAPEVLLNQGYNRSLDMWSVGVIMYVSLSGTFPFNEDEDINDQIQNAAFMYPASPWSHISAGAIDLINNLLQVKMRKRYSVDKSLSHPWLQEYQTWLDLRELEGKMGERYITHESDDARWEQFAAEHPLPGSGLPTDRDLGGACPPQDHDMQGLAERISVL
Nature of the test: Inhibition of PKD2 in human PC3 cell lysates at 10 uM using desthiobiotin-tagged ATP probe AX9989 followed by trypsinization by LC/MS analysis.

For test [7], the target named is DNA-dependent protein kinase catalytic subunit (Homo sapiens) (UniProt P78527). Nature of the test: Inhibition of DNAPK in human PC3 cell lysates at 10 uM using desthiobiotin-tagged ATP probe AX9989 followed by trypsinization by LC/MS analysis.
The nature of test [8]: Inhibition of PITSLRE in human PC3 cell lysates at 10 uM using desthiobiotin-tagged ATP probe AX9989 followed by trypsinization by LC/MS analysis. Type of test: cell-free.
The target in test [9] is CaM kinase II (Homo sapiens) (UniProt Q13557+Q13555+Q13554+Q9UQM7). Put plainly: Inhibition of CaMK2alpha/CaMK2beta/CaMK2delta/CaMK2gamma in human PC3 cell lysates at 10 uM using desthiobiotin-tagged ATP probe AX9989 followed by trypsinization by LC/MS analysis. Type of test: protein assay.
For test [10], the target named is AMPK alpha1/alpha2 (Homo sapiens) (UniProt P54646+Q13131). Put plainly: Inhibition of AMPKalpha1/AMPKalpha2 in human PC3 cell lysates at 10 uM using desthiobiotin-tagged ATP probe AX9989 followed by trypsinization by LC/MS analysis. Type of test: protein-complex assay.
Test [11] has as its target Tyrosine-protein kinase Fyn (Homo sapiens) (UniProt P06241). Put plainly: Inhibition of FYN in human PC3 cell lysates at 10 uM using desthiobiotin-tagged ATP probe AX9989 followed by trypsinization by LC/MS analysis.
Test [12] deals with Cyclin-dependent kinase 9 (Homo sapiens) (UniProt P50750). Put plainly: Inhibition of CDK9 in human PC3 cell lysates at 10 uM using desthiobiotin-tagged ATP probe AX9989 followed by trypsinization by LC/MS analysis.
Chain of Cyclin-dependent kinase 9 (Homo sapiens) (P50750 whole entry): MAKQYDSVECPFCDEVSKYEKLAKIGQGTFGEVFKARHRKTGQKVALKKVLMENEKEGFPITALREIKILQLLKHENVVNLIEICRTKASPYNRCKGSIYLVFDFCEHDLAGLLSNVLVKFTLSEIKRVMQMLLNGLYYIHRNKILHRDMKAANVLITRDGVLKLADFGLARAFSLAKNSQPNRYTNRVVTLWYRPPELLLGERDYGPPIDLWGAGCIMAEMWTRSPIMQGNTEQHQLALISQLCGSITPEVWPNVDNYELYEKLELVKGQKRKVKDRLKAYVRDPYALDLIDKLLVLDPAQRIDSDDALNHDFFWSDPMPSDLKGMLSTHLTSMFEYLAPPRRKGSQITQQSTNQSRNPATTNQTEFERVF

Chain of Phosphatidylinositol 4,5-bisphosphate 3-kinase catalytic subunit beta isoform (Homo sapiens) (P42338 whole entry, looked up, canonical isoform): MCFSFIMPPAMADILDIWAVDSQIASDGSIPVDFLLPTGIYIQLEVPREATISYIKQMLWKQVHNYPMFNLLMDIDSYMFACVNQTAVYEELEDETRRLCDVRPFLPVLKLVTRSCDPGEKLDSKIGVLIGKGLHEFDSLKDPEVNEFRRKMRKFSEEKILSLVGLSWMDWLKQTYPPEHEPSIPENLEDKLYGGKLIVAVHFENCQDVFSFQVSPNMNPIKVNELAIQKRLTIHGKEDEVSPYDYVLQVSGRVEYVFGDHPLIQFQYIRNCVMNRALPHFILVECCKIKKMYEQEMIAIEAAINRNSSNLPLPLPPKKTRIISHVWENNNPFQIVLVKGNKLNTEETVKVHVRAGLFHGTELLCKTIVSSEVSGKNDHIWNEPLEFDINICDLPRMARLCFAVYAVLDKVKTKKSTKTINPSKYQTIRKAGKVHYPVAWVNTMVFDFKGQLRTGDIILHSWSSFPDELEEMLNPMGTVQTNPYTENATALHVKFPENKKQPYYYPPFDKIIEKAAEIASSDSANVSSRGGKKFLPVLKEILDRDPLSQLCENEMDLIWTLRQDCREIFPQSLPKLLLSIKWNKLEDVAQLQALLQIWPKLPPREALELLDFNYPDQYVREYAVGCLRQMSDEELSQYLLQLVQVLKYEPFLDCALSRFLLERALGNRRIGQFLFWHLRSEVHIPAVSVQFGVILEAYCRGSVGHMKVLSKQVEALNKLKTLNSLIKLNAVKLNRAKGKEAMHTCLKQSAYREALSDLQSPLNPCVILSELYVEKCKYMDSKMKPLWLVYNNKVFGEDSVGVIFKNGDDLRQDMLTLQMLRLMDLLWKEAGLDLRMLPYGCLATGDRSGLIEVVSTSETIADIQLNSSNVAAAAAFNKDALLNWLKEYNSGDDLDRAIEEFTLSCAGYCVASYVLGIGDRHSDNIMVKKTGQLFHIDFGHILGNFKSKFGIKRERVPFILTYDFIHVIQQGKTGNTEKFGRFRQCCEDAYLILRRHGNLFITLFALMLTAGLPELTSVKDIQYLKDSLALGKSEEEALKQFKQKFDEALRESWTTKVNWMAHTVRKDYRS
Chain of AMPK alpha1/alpha2 (Homo sapiens) (P54646 whole entry, looked up): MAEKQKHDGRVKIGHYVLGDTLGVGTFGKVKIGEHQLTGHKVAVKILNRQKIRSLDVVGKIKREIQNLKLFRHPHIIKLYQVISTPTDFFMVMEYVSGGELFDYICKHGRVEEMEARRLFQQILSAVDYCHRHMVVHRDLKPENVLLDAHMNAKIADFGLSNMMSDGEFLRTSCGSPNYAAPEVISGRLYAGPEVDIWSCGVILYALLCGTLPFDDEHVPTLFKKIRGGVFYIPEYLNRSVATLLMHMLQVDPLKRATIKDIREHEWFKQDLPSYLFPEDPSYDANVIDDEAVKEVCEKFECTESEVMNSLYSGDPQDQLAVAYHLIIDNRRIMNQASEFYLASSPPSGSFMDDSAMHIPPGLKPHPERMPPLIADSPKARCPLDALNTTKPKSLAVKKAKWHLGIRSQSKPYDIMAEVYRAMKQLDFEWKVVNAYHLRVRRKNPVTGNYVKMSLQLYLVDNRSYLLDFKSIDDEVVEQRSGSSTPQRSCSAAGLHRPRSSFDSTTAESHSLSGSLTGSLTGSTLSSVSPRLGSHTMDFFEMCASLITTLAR
Chain of AMPK alpha1/alpha2 (Homo sapiens) (Q13131 whole entry, looked up): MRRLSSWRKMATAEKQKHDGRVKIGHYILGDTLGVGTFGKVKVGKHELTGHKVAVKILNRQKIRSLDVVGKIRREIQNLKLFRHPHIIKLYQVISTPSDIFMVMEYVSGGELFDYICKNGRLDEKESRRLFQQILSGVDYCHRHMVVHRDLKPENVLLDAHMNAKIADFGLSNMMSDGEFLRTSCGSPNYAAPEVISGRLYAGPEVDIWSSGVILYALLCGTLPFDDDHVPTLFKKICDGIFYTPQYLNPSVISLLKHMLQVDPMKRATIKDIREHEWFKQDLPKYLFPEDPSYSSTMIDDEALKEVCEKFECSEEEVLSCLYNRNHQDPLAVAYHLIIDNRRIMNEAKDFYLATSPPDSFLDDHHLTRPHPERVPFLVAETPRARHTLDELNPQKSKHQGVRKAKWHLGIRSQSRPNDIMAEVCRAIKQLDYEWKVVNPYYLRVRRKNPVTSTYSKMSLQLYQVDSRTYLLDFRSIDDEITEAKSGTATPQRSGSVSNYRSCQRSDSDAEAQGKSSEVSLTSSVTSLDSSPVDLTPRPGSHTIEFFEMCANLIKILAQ
Chain of Serine/threonine-protein kinase WNK1 (Homo sapiens) (Q9H4A3 whole entry, looked up): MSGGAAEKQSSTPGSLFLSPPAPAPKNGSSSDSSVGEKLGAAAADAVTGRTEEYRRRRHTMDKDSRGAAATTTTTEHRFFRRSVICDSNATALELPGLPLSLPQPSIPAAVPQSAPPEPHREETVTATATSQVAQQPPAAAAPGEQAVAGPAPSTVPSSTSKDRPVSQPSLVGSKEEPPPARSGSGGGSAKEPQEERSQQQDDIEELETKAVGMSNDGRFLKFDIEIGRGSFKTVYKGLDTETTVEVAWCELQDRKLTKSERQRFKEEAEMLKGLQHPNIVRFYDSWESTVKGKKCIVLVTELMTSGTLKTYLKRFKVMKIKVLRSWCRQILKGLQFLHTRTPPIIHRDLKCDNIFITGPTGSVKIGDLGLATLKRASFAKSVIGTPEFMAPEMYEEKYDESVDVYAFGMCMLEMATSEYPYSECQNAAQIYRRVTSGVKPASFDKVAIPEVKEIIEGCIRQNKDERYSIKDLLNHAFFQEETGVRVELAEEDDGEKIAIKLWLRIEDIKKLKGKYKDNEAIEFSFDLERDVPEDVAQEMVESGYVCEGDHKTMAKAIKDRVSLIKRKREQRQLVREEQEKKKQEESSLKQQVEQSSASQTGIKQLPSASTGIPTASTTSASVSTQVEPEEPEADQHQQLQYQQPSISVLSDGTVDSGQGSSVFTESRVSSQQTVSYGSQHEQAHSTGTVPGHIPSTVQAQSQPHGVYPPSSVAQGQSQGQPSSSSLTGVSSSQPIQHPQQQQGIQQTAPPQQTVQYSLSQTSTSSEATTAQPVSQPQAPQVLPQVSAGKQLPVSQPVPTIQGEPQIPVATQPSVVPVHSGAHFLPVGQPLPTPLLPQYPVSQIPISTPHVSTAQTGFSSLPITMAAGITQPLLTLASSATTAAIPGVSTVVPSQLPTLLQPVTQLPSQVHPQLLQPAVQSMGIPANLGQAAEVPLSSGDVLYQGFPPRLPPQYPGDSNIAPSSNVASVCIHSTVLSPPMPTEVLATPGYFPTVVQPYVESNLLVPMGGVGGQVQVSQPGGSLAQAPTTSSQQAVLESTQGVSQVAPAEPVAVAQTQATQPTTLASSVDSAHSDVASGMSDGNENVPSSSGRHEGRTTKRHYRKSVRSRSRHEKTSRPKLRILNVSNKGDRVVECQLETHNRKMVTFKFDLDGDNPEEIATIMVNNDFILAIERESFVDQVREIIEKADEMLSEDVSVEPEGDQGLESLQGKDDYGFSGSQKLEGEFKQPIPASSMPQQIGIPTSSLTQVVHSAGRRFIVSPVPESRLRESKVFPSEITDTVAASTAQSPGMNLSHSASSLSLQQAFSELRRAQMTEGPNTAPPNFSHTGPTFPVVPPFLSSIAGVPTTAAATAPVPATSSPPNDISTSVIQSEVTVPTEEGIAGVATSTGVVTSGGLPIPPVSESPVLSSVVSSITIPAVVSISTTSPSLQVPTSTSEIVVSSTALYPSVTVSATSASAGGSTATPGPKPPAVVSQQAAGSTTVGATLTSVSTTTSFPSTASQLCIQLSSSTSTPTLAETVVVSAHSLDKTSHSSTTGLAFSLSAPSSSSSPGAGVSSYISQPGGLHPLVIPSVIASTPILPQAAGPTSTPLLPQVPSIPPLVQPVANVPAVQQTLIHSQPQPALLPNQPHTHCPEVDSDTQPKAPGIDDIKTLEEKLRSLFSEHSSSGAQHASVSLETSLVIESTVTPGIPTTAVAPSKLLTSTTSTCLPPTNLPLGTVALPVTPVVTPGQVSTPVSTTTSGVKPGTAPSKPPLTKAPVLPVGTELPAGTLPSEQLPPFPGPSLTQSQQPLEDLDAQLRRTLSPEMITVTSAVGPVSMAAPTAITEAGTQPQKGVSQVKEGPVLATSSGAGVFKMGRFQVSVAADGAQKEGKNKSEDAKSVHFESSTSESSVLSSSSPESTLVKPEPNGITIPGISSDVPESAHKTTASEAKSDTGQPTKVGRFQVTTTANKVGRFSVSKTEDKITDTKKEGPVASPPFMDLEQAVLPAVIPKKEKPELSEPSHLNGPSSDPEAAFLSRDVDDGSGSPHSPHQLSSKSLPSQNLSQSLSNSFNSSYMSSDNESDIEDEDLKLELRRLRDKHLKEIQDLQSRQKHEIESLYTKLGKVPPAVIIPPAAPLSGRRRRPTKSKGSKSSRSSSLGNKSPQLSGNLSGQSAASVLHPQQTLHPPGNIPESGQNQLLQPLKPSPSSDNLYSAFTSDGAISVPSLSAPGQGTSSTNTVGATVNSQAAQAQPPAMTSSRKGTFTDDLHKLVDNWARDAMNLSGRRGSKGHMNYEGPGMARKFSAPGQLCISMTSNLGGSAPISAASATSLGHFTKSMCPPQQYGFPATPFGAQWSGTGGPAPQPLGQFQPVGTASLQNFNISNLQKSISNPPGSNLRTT

Regarding `CC[C@@H](NC(=O)c1ccc2nc(N[C@H]3CC[C@H](O)CC3)c3nccn3c2c1)c1ccccc1`, the inhibition in [1], in [2], in test [3], in test [4], in [5] and in test [6] was less than 35% throughout. For the same molecule, the inhibition is less than 35% in [7]; less than 35% in [8]; 46.9% in test [9]; less than 35% in test [10]; less than 35% in [11]; less than 35% in test [12].

On to `C[C@@H](NC(=O)c1ccc2nc(N[C@H]3CC[C@H](O)CC3)c3nccn3c2c1)c1ccccc1`, for which the inhibition in test [1], in test [2], in test [3], in [4], in test [5] and in test [6] was less than 35% throughout. In addition, the inhibition in test [7] was less than 35%; in [8], less than 35%; in test [9], less than 35%; in test [10] it was 43.2%; in [11] it was less than 35%; in [12], 42%.

With `CCC[C@@H](NC(=O)c1ccc2nc(N[C@H]3CC[C@H](O)CC3)c3nccn3c2c1)c1ccccc1`, the inhibition in [1], in test [2], in [3], in [4], in test [5] and in test [6] was less than 35% throughout. For the same molecule, the inhibition in test [7], in test [8], in test [9], in test [10], in [11] and in test [12] was less than 35% in each case.

For `C[C@H](NC(=O)c1ccc2nc(N[C@H]3CC[C@H](O)CC3)c3nccn3c2c1)c1ccccc1`, the inhibition in test [1], in test [2], in [3], in [4], in test [5] and in test [6] was less than 35% each time. The inhibition in [7], in test [8], in test [9], in test [10], in test [11] and in [12] was less than 35% each time.

On to `O=C(NC1(c2ccccc2)CC1)c1ccc2nc(N[C@H]3CC[C@H](O)CC3)c3nccn3c2c1`, for which the inhibition in [1], in [2], in test [3], in test [4], in [5] and in test [6] was less than 35% throughout. Also, the inhibition in test [7], in test [8], in test [9], in [10], in test [11] and in test [12] was less than 35% throughout.

For `NC(=O)c1ccc2nc(N[C@H]3CC[C@H](O)CC3)c3nccn3c2c1`, the inhibition in [1] was less than 35%; in [2], less than 35%; in [3] it was less than 35%; in [4], less than 35%; in test [5], less than 35%; in test [6], 51.7%. For the same molecule, the inhibition was less than 35% in test [7]; 95.6% in [8]; less than 35% in test [9]; less than 35% in test [10]; less than 35% in test [11]; 98.6% in test [12].

As to `CC(C)(NC(=O)c1ccc2nc(N[C@H]3CC[C@H](O)CC3)c3nccn3c2c1)c1ccccc1`, the inhibition in test [1], in test [2], in [3], in test [4], in test [5] and in test [6] was less than 35% throughout. Besides, the inhibition in test [7], in test [8], in test [9], in test [10], in test [11] and in [12] was less than 35% throughout.

For the molecule `O=C(N[C@H](CO)c1ccccc1)c1ccc2nc(N[C@H]3CC[C@H](O)CC3)c3nccn3c2c1`, the inhibition in test [1], in test [2], in [3], in test [4], in test [5] and in [6] was less than 35% in each case. Moreover, the inhibition is less than 35% in test [7]; less than 35% in [8]; less than 35% in [9]; 40.1% in test [10]; less than 35% in test [11]; less than 35% in test [12].

In the case of `O=C(NC1(Cc2ccc(F)cc2)CC1)c1ccc2nc(N[C@H]3CC[C@H](O)CC3)c3nccn3c2c1`, the inhibition in test [1], in test [2], in [3], in test [4], in test [5] and in test [6] was less than 35% in each case. The inhibition in [7], in test [8], in test [9], in test [10], in test [11] and in [12] was less than 35% each time.

In general, inhibition refers to the change of the read-out against control, counted positive when it falls. Low values mean a weak effect, high ones a strong effect.

(Values after ChEMBL document CHEMBL2417377, “Hit-to-lead optimization and kinase selectivity of imidazo[1,2-a]quinoxalin-4-amine derived JNK1 inhibitors” (Bioorg Med Chem Lett, 2013).)
